According to ChEMBL document CHEMBL1201862, “PubChem BioAssay data set” (2004):
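Values below derive from 48-hour exposures of cells grown in 96-well plates, with endpoints linearly interpolated between the two concentrations bracketing the appropriate inhibition level. GI50 = concentration required for 50% inhibition of growth.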 Active and inactive are the calls of the source. Rule as the data show it: active = GI50 up to about 1.1 µM and inactive = higher.

Legend:
Experiment in all cases: NCI anticancer screen, dose series, 48 h
[1] = test system: SK-OV-3
[2] = test system: CAKI-1
[3] = test system: SNB-75
[4] = test system: HCC 2998
[5] = test system: HCT-15
[6] = test system: EKVX
[7] = test system: RPMI-8226
[8] = test system: UACC-62
[9] = test system: NCI-H226
[10] = test system: SK-MEL-28
[11] = test system: IGROV-1
[12] = test system: M14
[13] = test system: OVCAR-3
[14] = test system: NCI-H460
[15] = test system: SK-MEL-2
[16] = test system: NCI-H522
[17] = test system: A498
[18] = test system: OVCAR-5

SMILES | GI50 [1] | GI50 [2] | GI50 [3] | GI50 [4] | GI50 [5] | GI50 [6] | GI50 [7] | GI50 [8] | GI50 [9] | GI50 [10] | GI50 [11] | GI50 [12] | GI50 [13] | GI50 [14] | GI50 [15] | GI50 [16] | GI50 [17] | GI50 [18]
O=C1SC(c2ccccc2)(c2ccccc2)c2ccccc21 | > 100 µM (inactive) | > 100 µM (inactive) | > 100 µM (inactive) | > 100 µM (inactive) | > 100 µM | 63.5 µM (inactive) | 45.5 µM (inactive) | 68.1 µM (inactive) | > 100 µM (inactive) | > 100 µM (inactive) | > 100 µM (inactive) | 64.6 µM (inactive) | > 100 µM (inactive) | 69.7 µM (inactive) | > 100 µM (inactive) | 68.4 µM (inactive) | – | –
Cc1ccc(S(=O)(=O)c2ccccn2)cc1 | > 100 µM (inactive) | > 100 µM (inactive) | 90.8 µM (inactive) | > 100 µM (inactive) | > 100 µM | > 100 µM (inactive) | > 100 µM (inactive) | > 100 µM (inactive) | > 100 µM (inactive) | > 100 µM (inactive) | > 100 µM (inactive) | > 100 µM (inactive) | > 100 µM (inactive) | > 100 µM (inactive) | > 100 µM (inactive) | > 100 µM (inactive) | > 100 µM (inactive) | 46.5 µM (inactive)
COc1cc2c(c(OC)c1OC)-c1ccc(SC)c(=O)cc1[C@@H](NC(=O)c1ccc(OC(C)=O)cc1)CC2 | 0.0241 µM (active) | 33.9 µM (inactive) | 0.0332 µM (active) | 0.0218 µM (active) | 0.0229 µM | 0.0139 µM (active) | 0.0327 µM (active) | 0.0313 µM (active) | 0.0231 µM (active) | 0.0553 µM (active) | 0.0319 µM (active) | 0.0215 µM (active) | 0.015 µM (active) | 0.0326 µM (active) | – | 0.01 µM (active) | 0.0227 µM (active) | 24.7 µM (inactive)
N[C@H](C(=O)O)[C@H](Cl)CC(=O)O | > 100 µM (inactive) | > 100 µM (inactive) | > 100 µM (inactive) | > 100 µM (inactive) | > 100 µM | > 100 µM (inactive) | – | > 100 µM (inactive) | > 100 µM (inactive) | > 100 µM (inactive) | > 100 µM (inactive) | > 100 µM (inactive) | > 100 µM (inactive) | > 100 µM (inactive) | > 100 µM (inactive) | > 100 µM (inactive) | > 100 µM (inactive) | > 100 µM (inactive)
O=C(O)C(CS)NCc1c2ccccc2[n+]([O-])c2ccccc12 (stereo not drawn) | > 100 µM (inactive) | 83.6 µM (inactive) | 24 µM (inactive) | 36.1 µM (inactive) | 22.8 µM | 54.3 µM (inactive) | 26.3 µM (inactive) | 47.4 µM (inactive) | 39.9 µM (inactive) | 35.2 µM (inactive) | 33.2 µM (inactive) | 46.1 µM (inactive) | 81.7 µM (inactive) | 41.4 µM (inactive) | 45.6 µM (inactive) | 94 µM (inactive) | 68.7 µM (inactive) | > 100 µM (inactive)
O=c1cc(-c2ccccc2)oc2ccc(-c3ccc4oc(-c5ccccc5)cc(=O)c4c3)cc12 | 44.8 µM (inactive) | 16.6 µM (inactive) | – | 16 µM (inactive) | 15.8 µM | 3.75 µM (inactive) | 13.5 µM (inactive) | 14.9 µM (inactive) | – | – | 26.9 µM (inactive) | 16.6 µM (inactive) | > 10 µM (inactive) | 19.6 µM (inactive) | 18.2 µM (inactive) | – | 14.7 µM (inactive) | 27.6 µM (inactive)
O=C(CCc1n[nH]c(=S)o1)Nc1ccc(Cl)cc1Cl | > 100 µM (inactive) | > 100 µM (inactive) | > 100 µM (inactive) | > 100 µM (inactive) | 20.9 µM | > 100 µM (inactive) | 16.9 µM (inactive) | > 100 µM (inactive) | > 100 µM (inactive) | > 100 µM (inactive) | > 100 µM (inactive) | > 100 µM (inactive) | > 100 µM (inactive) | > 100 µM (inactive) | – | 61.8 µM (inactive) | > 100 µM (inactive) | > 100 µM (inactive)
CSC(SC)=C(C#N)C(=O)Nc1cccc(Cl)c1 | 65.8 µM (inactive) | 45.9 µM (inactive) | > 100 µM (inactive) | 75.5 µM (inactive) | 38.4 µM | > 100 µM (inactive) | – | 59.6 µM (inactive) | > 100 µM (inactive) | 64.7 µM (inactive) | 69.2 µM (inactive) | 47.8 µM (inactive) | – | 59.8 µM (inactive) | > 100 µM (inactive) | 17.5 µM (inactive) | 61.1 µM (inactive) | 98.2 µM (inactive)
